Here are results for two compounds from patent US6506928B1, “Dendrimeric fullerene derivatives, process for their preparation, and use as neuroprotectants” (Siemens Axiva GmbH & Co. KG, priority 1998, dated 2003).

Series [1] can be described thus: physchem. The protocol: The dendrimer fullerene 1 of second generation [18-cascade:methano-C60-fullerene[2]:(2-aza-7-oxa-3,8-dioxooctylidyne):(2-aza-3-oxopentylidyne):propanoic acid] (cf. preparation example 1) is prepared (Scheme 3) analogously to the synthesis of the derivative of first generation 8 shown in Scheme 2. As in the first case, the tert-butyl-protected γ-aminotriscarboxylic acid 3 is reacted with the appropriate nitrotriscarboxylic acid 9, whose tert-butyl ester is the synthesis precursor of 3 (15, 16), using DCC in the presence of 1HO-BT and subsequent reduction with hydrogen to the dendron 10 of second generation [9-cascade:aminomethane[3]:(2-aza-3-oxopentylidyne):tert-butyl propanoate]. […] The analogous removal of the protective groups leads to the dendrimer fullerene 1 of the second generation.

Series [2] concerns apoptotic neural death. The following applies: induced by serum withdrawal or exposure of Aβ1-42 protein; literature /12/; cited from earlier work.

Values after ≈ are worked out from the molar mass of the structure shown.

The solubility is how much of the substance goes into solution per volume. Higher therefore signals a readily soluble substance. As to `O=CCCC(CCC(=O)O)(CCC(=O)O)NC(=O)CCC(CCC(=O)NC(CCC(=O)O)(CCC(=O)O)CCC(=O)O)(CCC(=O)NC(CCC(=O)O)(CCC(=O)O)CCC(=O)O)NC(=O)CCCOC(=O)C1(C(=O)OCCCC(=O)NC(CCC(=O)NC(CCC(=O)O)(CCC(=O)O)CCC(=O)O)(CCC(=O)NC(CCC(=O)O)(CCC(=O)O)CCC(=O)O)CCC(=O)NC(CCC(=O)O)(CCC(=O)O)CCC(=O)O)C2c3cc4c5c6c(cc7ccc8cc9c%10c%11c(cc(c%12c3c5c(c%12%11)c3c6c7c8c%103)C21)C9)C4` (stereo not shown) [compound 1, 18-cascade:methano-C60-fullerene[2]:(2-aza-7-oxa-3,8-dioxooctylidyne):(2-aza-3-oxopentylidyne):propanoic acid], the “solubility (in words)” value in series [1] is listed as “very readily soluble”. Moreover, the solubility is roughly 34 mg/mL (≈ 13.7 mM) in series [1] (25 °C, pH 7, aqueous buffer) and roughly 250 mg/mL (≈ 100 mM) in series [1] (pH 10, aqueous buffer).
Take “C60[C(COOH)2]3 [C3-symmetrical derivative]”: the “reduction of apoptotic neural death” value in series [2] is listed as “reduced apoptotic neural death”.
